One assay addresses CDK9/cyclin T1 (Homo sapiens, UniProt P50750). The experiment in a line: Inhibition of N-terminal GST-HIS6 fusion protein tagged human full length CDK9 (M1 to F372 residues)/N-terminal GST-HIS6 fusion protein tagged human Cyclin-T1 (M1 to K726 residues) expressed in Sf9 cells at 10 uM using TAMRA-Rbtide substrate and ATP incubated for 1 hr by fluorescent polarization assay.
The target of assay [1] is CDK7/Cyclin H/MNAT1 (Homo sapiens) (UniProt P51946+P50613+P51948). The experiment in a line: Inhibition of N-terminal GST-HIS6 fusion protein tagged human CDK7 (M1 to F346 residues)/N-terminal HIS6-tagged human Cyclin-H (M1 to L323 residues)/N-terminal HIS6-tagged human MAT1 (M1 to S306 residues) expressed in Sf9 cells at 1 uM using RB-CTF substrate and ATP incubated for 1 hr by fluorescent polarization assay.

For assay [2], the target named is T1, Serine/threonine-protein kinase PLK1 (Homo sapiens, UniProt P53350). The experiment in a line: Inhibition of human PLK1 kinase domain using 5-TAMRA-RGSFNDTLDFD-NH2 substrate and ATP incubated for 90 mins by fluorescent polarization assay.
For assay [3], the target named is CDK2/Cyclin A2 (Homo sapiens) (UniProt P24941+P20248). As to the kind of experiment: Inhibition of human full length CDK2 (M1 to L298 residues)/human full length Cyclin-A2 (M1 to L432 residues) expressed in Sf9 cells at 1 uM using TAMRA-histone H1-derived peptide substrate and ATP incubated for 1 hr by fluorescent polarization assay.
Assay [4] deals with T1, Serine/threonine-protein kinase PLK1. The experiment in a line: Inhibition of human PLK1 kinase domain at 10 uM using 5-TAMRA-RGSFNDTLDFD-NH2 substrate and ATP incubated for 90 mins by fluorescent polarization assay.
The subject of another assay is RPMI-8226. The experiment in a line: Antiproliferative activity against human RPMI8226 cells assessed as inhibition of cell proliferation incubated for 72 hrs by Cell-titer-Glo luminescent cell viability assay. As to conditions: RPMI-8226, 72 h. It counts as functional, cell-based.

T1 sequence (P53350 whole entry, the tested form may be a part): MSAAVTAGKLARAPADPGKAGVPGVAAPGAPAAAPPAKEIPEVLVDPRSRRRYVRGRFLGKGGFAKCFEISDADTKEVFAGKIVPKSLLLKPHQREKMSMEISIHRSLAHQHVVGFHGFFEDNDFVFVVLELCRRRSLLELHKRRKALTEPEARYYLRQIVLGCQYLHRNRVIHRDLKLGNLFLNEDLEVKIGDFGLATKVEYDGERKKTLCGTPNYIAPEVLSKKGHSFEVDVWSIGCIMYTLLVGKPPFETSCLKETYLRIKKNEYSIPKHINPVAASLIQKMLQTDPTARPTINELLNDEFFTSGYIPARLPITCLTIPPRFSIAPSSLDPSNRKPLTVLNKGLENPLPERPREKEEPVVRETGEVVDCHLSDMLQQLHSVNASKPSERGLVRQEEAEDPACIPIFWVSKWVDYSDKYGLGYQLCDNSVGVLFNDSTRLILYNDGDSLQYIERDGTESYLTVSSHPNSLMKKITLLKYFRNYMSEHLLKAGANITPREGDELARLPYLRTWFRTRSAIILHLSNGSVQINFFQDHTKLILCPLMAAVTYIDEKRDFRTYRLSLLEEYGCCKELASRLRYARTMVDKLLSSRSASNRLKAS
Chain of CDK9/cyclin T1 (O60563 whole entry, the tested form may be a part): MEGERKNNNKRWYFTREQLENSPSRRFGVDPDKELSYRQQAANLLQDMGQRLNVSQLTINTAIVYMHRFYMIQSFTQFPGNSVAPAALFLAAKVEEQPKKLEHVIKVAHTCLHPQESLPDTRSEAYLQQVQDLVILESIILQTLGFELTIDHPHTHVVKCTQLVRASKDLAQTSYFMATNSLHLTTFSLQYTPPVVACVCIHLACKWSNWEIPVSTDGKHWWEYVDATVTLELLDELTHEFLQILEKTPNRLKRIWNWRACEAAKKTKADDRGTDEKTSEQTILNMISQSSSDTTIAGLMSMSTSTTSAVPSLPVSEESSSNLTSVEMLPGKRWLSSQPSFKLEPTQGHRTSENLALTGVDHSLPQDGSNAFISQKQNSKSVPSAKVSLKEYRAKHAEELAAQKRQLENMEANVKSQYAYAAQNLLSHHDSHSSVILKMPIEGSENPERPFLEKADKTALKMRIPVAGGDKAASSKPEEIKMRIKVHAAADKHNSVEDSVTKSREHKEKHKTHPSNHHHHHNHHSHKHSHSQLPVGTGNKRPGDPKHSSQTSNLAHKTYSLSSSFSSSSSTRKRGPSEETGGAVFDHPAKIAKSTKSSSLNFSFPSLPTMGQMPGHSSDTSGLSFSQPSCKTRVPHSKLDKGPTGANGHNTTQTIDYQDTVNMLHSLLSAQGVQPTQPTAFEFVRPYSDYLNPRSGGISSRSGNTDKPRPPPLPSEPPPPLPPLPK
Chain of CDK9/cyclin T1 (P50750 whole entry, the tested form may be a part): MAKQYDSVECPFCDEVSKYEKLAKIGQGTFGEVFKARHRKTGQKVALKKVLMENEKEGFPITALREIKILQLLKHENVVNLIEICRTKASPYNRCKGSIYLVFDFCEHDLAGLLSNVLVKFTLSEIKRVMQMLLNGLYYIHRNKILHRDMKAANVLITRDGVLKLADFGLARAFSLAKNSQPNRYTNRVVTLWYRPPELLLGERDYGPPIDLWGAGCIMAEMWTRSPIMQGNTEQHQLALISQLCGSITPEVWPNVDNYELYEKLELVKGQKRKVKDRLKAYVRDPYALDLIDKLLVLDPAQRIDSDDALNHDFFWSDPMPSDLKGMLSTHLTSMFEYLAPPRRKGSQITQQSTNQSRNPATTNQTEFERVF

Take `CCOc1cc(Cl)ccc1-c1ccnc(Nc2cc(C(N)=O)c(OC)cc2F)n1`: the IC50 at CDK9/cyclin T1 is above 12500 nM.

On to `Cc1noc(NS(=O)(=O)c2ccc(Nc3nccc(-c4ccc(Cl)cc4Cl)n3)cc2)c1C`, for which the midpoint of inhibition against CDK9/cyclin T1, the IC50, lay at 50 nM.

With `COc1cc(F)c(Nc2nccc(-c3cc(F)c(F)cc3OC)n2)cc1C(N)=O`, the IC50 at CDK9/cyclin T1 is above 12500 nM.

For the compound `CCOc1cc(F)ccc1-c1ccnc(Nc2ccc(S(=O)(=O)Nc3nccs3)cc2)n1`, the IC50 against CDK9/cyclin T1 turned out to be 210 nM.

On to `COc1cc(F)ccc1-c1ccnc(Nc2ccc(S(=O)(=O)Nc3onc(C)c3C)cc2)n1`, for which the IC50 against CDK9/cyclin T1 was 2 nM; in assay [2], above 12500 nM. Moreover, the figures for the inhibition in assay [1], in assay [3] and in assay [4] were 3%, 43% and 35%, respectively.

As to `COc1cc(F)c(Nc2nccc(-c3ccc(F)cc3F)n2)cc1C(N)=O`, the IC50 at CDK9/cyclin T1 was above 12500 nM.

`COc1cccc(F)c1-c1ccnc(Nc2ccc(S(=O)(=O)Nc3onc(C)c3C)cc2)n1`: the IC50 in the assay with RPMI-8226 was 26600 nM; on CDK9/cyclin T1, 1 nM; in assay [2], 12400 nM. Moreover, the inhibition in assay [1] was 1%; in assay [3], 44%.

The compound `CCOc1cc(Cl)ccc1-c1ccnc(Nc2ccc(S(=O)(=O)Nc3nccs3)cc2)n1` had an IC50 against CDK9/cyclin T1 of 378 nM.

`CCOc1cc(F)ccc1-c1ccnc(Nc2cc(C(N)=O)c(OC)cc2F)n1` showed an IC50 at CDK9/cyclin T1 above 12500 nM.

`CCOc1cc(Cl)ccc1-c1ccnc(Nc2ccc(S(=O)(=O)Nc3onc(C)c3C)cc2)n1` had an IC50 at CDK9/cyclin T1 of 17 nM. Moreover, the inhibition in assay [4] came to 5%.

The compound `Cc1cc(F)ccc1-c1ccnc(Nc2ccc(S(=O)(=O)Nc3onc(C)c3C)cc2)n1` displayed an IC50 against CDK9/cyclin T1 of 6 nM.

On CDK9/cyclin T1, `COc1ccccc1-c1ccnc(Nc2ccc(S(=O)(=O)Nc3nnc(C)s3)cc2)n1` had an IC50 of 12 nM.

`COc1cc(F)ccc1-c1ccnc(Nc2ccc(S(=O)(=O)Nc3nccs3)cc2)n1` gave an IC50 against CDK9/cyclin T1 of 122 nM.

Take `COc1cc(F)c(Nc2nccc(-c3c(F)cccc3OC)n2)cc1C(N)=O`: the IC50 was 20500 nM in the assay with RPMI-8226 and above 12500 nM at CDK9/cyclin T1.

On CDK9/cyclin T1, `Cc1noc(NS(=O)(=O)c2ccc(Nc3nccc(-c4cccc(OC(C)C)c4F)n3)cc2)c1C` came in with an IC50 of 458 nM. Also, the inhibition in assay [4] turned out to be 65%.

On to `CCOc1cccc(F)c1-c1ccnc(Nc2ccc(S(=O)(=O)Nc3onc(C)c3C)cc2)n1`, for which the IC50 against CDK9/cyclin T1 was 2 nM; in assay [2] it was above 12500 nM. The inhibition in assay [1] was determined as 0%; in assay [3] it was 14%.

As to `COc1cc(F)c(Nc2nccc(-c3ccc(F)cc3OC)n2)cc1C(N)=O`, on CDK9/cyclin T1, the IC50 is above 12500 nM.

Compound `Cc1noc(NS(=O)(=O)c2ccc(Nc3nccc(-c4ccc(F)cc4Cl)n3)cc2)c1C` registered an IC50 on CDK9/cyclin T1 of 55 nM.

`CSc1cc(F)ccc1-c1ccnc(Nc2ccc(S(=O)(=O)Nc3onc(C)c3C)cc2)n1`: half-maximal inhibition against CDK9/cyclin T1 (IC50) required 13 nM.

In turn, `COc1ccc(-c2ccnc(Nc3ccc(S(=O)(=O)Nc4onc(C)c4C)cc3)n2)c(OC)c1` yielded an IC50 against CDK9/cyclin T1 of 9 nM. In addition, the inhibition in assay [4] stood at 34%.

For `COc1cc(F)ccc1-c1ccnc(Nc2ccc(-c3c(C)noc3C)cc2)n1`, the IC50 against CDK9/cyclin T1 is above 12500 nM.

Consider `COc1cc(F)ccc1-c1cc(Nc2ccc(S(=O)(=O)Nc3onc(C)c3C)cc2)ncn1`, for which the midpoint of inhibition against CDK9/cyclin T1, the IC50, lay at 40 nM.

In turn, `COc1cc(F)ccc1-c1ccnc(Nc2ccc(S(=O)(=O)Nc3nnc(C)s3)cc2)n1` displayed an IC50 against CDK9/cyclin T1 of 6 nM.

`COc1ccc(F)cc1-c1ccnc(Nc2ccc(S(=O)(=O)Nc3nnc(C)s3)cc2)n1` displayed an IC50 against CDK9/cyclin T1 of 9 nM.

`COc1cc(F)c(F)cc1-c1ccnc(Nc2ccc(S(=O)(=O)Nc3nnc(C)s3)cc2)n1` returned an IC50 against CDK9/cyclin T1 of 10 nM.

`COc1cc(F)c(F)cc1-c1ccnc(Nc2ccc(S(=O)(=O)Nc3onc(C)c3C)cc2)n1`: half-maximal inhibition on CDK9/cyclin T1 (IC50) required 8 nM. This compound also came in with an inhibition in assay [4] of 37%.

With `COc1ccc(F)c(F)c1-c1ccnc(Nc2ccc(S(=O)(=O)Nc3onc(C)c3C)cc2)n1`, the IC50 against CDK9/cyclin T1 was 1 nM; in assay [2], 5910 nM. Moreover, the inhibition in assay [1] came to 2%; in assay [3] it was 83%; in assay [4], 75%.

With `COc1ccccc1-c1ccnc(Nc2ccc(S(=O)(=O)Nc3nccs3)cc2)n1`, the IC50 in the assay on RPMI-8226 amounted to 24700 nM; against CDK9/cyclin T1 it was 33 nM.

In turn, `Cc1noc(NS(=O)(=O)c2ccc(Nc3nccc(-c4ccc(F)cc4F)n3)cc2)c1C` yielded an IC50 at CDK9/cyclin T1 of 11 nM. Also, in assay [4], the inhibition was 55%.

The compound `CCOc1cc(F)ccc1-c1ccnc(Nc2ccc(S(=O)(=O)Nc3onc(C)c3C)cc2)n1` came in with an IC50 against CDK9/cyclin T1 of 8 nM. The inhibition in assay [4] was 11%.

In the case of `COc1ccc(-c2ccnc(Nc3ccc(S(=O)(=O)Nc4nnc(C)s4)cc3)n2)c(OC)c1`, on CDK9/cyclin T1, inhibition was half-maximal at 14 nM (IC50).

On CDK9/cyclin T1, `COc1ccc(F)cc1-c1ccnc(Nc2ccc(S(=O)(=O)Nc3onc(C)c3C)cc2)n1` returned an IC50 of 9 nM.

As to `COc1cc(F)ccc1-c1ccnc(Nc2ccc(S(=O)(=O)Nc3noc(C)c3C)cc2)n1`, the IC50 against CDK9/cyclin T1 is 3 nM; in assay [2] it was above 12500 nM. Besides, the inhibition in assay [1] and in assay [3] was 0% in each case.

On to `COc1ccccc1-c1ccnc(Nc2ccc(S(=O)(=O)Nc3noc(C)c3C)cc2)n1`, for which the IC50 in the assay with RPMI-8226 came out at 12300 nM; against CDK9/cyclin T1, 4 nM.

Take `COc1cc(F)ccc1-c1ccnc(Nc2cccc(Cn3cnc4ccccc43)c2)n1`: at CDK9/cyclin T1, the IC50 stood at 4 nM.

On to `COc1cc(F)ccc1-c1ccnc(Nc2ccc(C(=O)O)cc2)n1`, for which it took 66 nM to reach half-maximal inhibition on CDK9/cyclin T1 (IC50).

In the case of `COc1cccc(F)c1-c1ccnc(Nc2cccc(Cn3cnc4ccccc43)c2)n1`, the IC50 in the assay on RPMI-8226 is 1780 nM; against CDK9/cyclin T1, 2 nM; in assay [2] it was above 12500 nM. The results for the inhibition in assay [1] and in assay [3] were 0% and 44%, respectively.

As for `COc1cccc(F)c1-c1ccnc(Nc2ccc(S(=O)(=O)Nc3nnc(C)s3)cc2)n1`, the values for the IC50 (against CDK9/cyclin T1; in assay [2]) were 2 nM and above 12500 nM, respectively. Besides, the values for the inhibition in assay [1] and in assay [3] were 2% and 29%, respectively.

For `COc1ccc(F)c(F)c1-c1ccnc(Nc2ccc(S(=O)(=O)Nc3nnc(C)s3)cc2)n1`, the IC50 in the assay on RPMI-8226 was 11700 nM; at CDK9/cyclin T1, 0.4 nM; in assay [2] it was above 12500 nM. For the same compound, the inhibition in assay [1] amounted to 7%; in assay [3], 50%.

In the case of `COc1ccccc1-c1ccnc(Nc2ccc(S(=O)(=O)Nc3onc(C)c3C)cc2)n1`, the IC50 in the assay with RPMI-8226 worked out at 29200 nM; on CDK9/cyclin T1, 3 nM. Also, the inhibition in assay [4] is 56%.

As for `COc1cc(F)ccc1-c1ccnc(Nc2ccc(S(=O)(=O)Nc3noc4ccccc34)cc2)n1`, the IC50 in the assay on RPMI-8226 turned out to be 15500 nM; against CDK9/cyclin T1 it was 5 nM.

Consider `CCOc1cc(F)ccc1-c1ccnc(Nc2ccc(S(=O)(=O)Nc3nnc(C)s3)cc2)n1`, for which, at CDK9/cyclin T1, the IC50 is 2 nM.

Compound `Cc1noc(NS(=O)(=O)c2ccc(Nc3nccc(-c4ccc(F)cc4OC(C)C)n3)cc2)c1C` gave an IC50 against CDK9/cyclin T1 of 49 nM. The inhibition in assay [4] worked out at 13%.

Turning to `COc1cc(F)c(Nc2nccc(-c3ccccc3OC)n2)cc1C(N)=O`, the IC50 in the assay with RPMI-8226 amounted to 21500 nM; on CDK9/cyclin T1, 1580 nM.

`COc1ccccc1-c1ccnc(Nc2cccc(Cn3cnc4ccccc43)c2)n1`: the figures for the IC50 (with RPMI-8226; on CDK9/cyclin T1; in assay [2]) were 1340 nM, 3 nM and above 12500 nM, respectively. Further, the inhibition in assay [1] turned out to be 0%; in assay [3] it was 9%.

On CDK9/cyclin T1, `COc1cc(Cl)ccc1-c1ccnc(Nc2ccc(S(=O)(=O)Nc3onc(C)c3C)cc2)n1` returned an IC50 of 12 nM.

Turning to `COc1cccc(F)c1-c1ccnc(Nc2ccc(S(=O)(=O)Nc3nccs3)cc2)n1`, the IC50 at CDK9/cyclin T1 is 2 nM; in assay [2] it was above 12500 nM. In addition, the inhibition was 0% in assay [1] and 46% in assay [3].

On CDK9/cyclin T1, `COc1cc(F)c(Nc2nccc(-c3ccc(F)cc3OC(C)C)n2)cc1C(N)=O` came in with an IC50 above 12500 nM.

Consider `COc1cccc(Cl)c1-c1ccnc(Nc2ccc(S(=O)(=O)Nc3onc(C)c3C)cc2)n1`, for which the IC50 on CDK9/cyclin T1 amounted to 25 nM.

`CCOc1cc(Cl)ccc1-c1ccnc(Nc2ccc(S(=O)(=O)Nc3nnc(C)s3)cc2)n1` showed an IC50 on CDK9/cyclin T1 of 5 nM.

`COc1cc(F)c(-c2ccnc(Nc3ccc(S(=O)(=O)Nc4onc(C)c4C)cc3)n2)c(F)c1` displayed an IC50 against CDK9/cyclin T1 of 21 nM.

Turning to `COc1cc(F)ccc1-c1ccnc(Nc2ccc(C(=O)Nc3onc(C)c3C)cc2)n1`, the IC50 at CDK9/cyclin T1 was determined as 135 nM.

(Values after ChEMBL document CHEMBL4184207, “Novel compounds with potent CDK9 inhibitory activity for the treatment of myeloma” (Bioorg Med Chem Lett, 2018).)
